Each structure is given as a SMILES string. pIC50: −log10 of the molar value.

For this test, the target named is T1, Receptor-type tyrosine-protein kinase FLT3 (Homo sapiens, UniProt P36888).
T1 sequence (P36888 whole entry): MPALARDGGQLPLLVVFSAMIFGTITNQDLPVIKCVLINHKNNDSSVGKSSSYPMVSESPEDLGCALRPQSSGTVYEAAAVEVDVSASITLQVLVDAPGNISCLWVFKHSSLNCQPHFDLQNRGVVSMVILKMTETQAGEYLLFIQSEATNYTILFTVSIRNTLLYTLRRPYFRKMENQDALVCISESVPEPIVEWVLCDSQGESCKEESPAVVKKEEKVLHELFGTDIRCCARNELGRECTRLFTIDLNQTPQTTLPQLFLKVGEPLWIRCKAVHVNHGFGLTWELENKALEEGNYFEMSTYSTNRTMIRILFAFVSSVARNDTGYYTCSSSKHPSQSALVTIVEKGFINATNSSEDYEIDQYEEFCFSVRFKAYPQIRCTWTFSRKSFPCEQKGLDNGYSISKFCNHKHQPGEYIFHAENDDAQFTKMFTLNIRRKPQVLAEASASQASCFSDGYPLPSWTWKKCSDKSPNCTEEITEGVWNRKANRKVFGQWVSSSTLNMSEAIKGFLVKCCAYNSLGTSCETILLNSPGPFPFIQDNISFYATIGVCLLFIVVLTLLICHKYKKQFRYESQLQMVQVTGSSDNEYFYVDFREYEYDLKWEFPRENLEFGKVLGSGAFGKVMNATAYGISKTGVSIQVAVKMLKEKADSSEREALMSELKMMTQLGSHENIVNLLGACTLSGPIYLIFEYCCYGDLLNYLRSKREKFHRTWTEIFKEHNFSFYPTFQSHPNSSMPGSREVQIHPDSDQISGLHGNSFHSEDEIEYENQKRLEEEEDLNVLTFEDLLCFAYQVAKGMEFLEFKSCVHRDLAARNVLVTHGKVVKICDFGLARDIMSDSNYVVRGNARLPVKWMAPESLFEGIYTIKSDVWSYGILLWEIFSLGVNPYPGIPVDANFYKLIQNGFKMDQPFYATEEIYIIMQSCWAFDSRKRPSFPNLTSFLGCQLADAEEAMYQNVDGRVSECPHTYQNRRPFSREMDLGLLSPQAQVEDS
Put plainly: Inhibition of FLT3 (unknown origin).

What is called pIC50 is −log10 of the IC50, conventionally taken in molar units. Lower therefore signals a large IC50. Consider `N[C@H]1CC[C@@H](Nc2cncc(-c3cccc(CC4SC(=O)NC4=O)c3)n2)CC1` (stereo partly specified), for which the negative logarithm of the IC50 (pIC50) was 9.96.

These data come from ChEMBL document CHEMBL5532678, “Comprehensive Insights that Targeting PIM for Cancer Therapy: Prospects and Obstacles” (J Med Chem, 2024).
